{
  "source": "patent US8722910B2",
  "about": "“Diyne compositions” (Evolva AG, priority 2009, dated 2014)",
  "key": {"Candida albicans [1]": {"system": "Candida albicans", "test": "Mouse vaginal infection, topical dosing", "format": "in vivo", "conditions": "mice; topically 0.01% daily for five days", "description": "The efficacy of compound III″ in vaginal infections of small mammals has been shown. Mice were vaginally infected with Candida albicans. Compound III″ was administered topically at 0.01% daily for five days. Fungal burden decreased 86% compared to the untreated control (see FIG. 14 showing vaginal fungal burden as determined by colony forming units (CFU) from vaginal lavage fluid)."}, "C. albicans spores": {"system": "C. albicans spores", "test": "Effect on the germination of C. albicans (MTT)", "format": "cell-based", "conditions": "drug added after 3 hours"}, "Candida albicans [2]": {"system": "Candida albicans", "test": "In vitro antifungal activity vs. yeasts (MIC/MFC)", "format": "cell-based", "conditions": "Candida albicans (n = 8)"}, "M. vanbreuseghemii": {"system": "M. vanbreuseghemii", "test": "In vitro antifungal activity vs. dermatophytes (MIC/MFC)", "format": "cell-based", "conditions": "M. vanbreuseghemii (n = 1)"}, "[3]": {"test": "Stability of diyne salts on storage (HPLC content)", "format": "physicochemical", "conditions": "crystalline solid", "description": "Potassium (Z)-14-(furan-2-yl)tetradeca-9-en-11,13-diynoate was kept as a crystalline solid for 6 month at 2-8° C. The content of potassium (Z)-14-(furan-2-yl)tetradeca-9-en-11,13-diynoate was determined by HPLC against a reference sample kept at −20° C. After 6 months of storage characteristics such as colour, water content, XRPD profile, of the solid had not changed and it was still a beige solid. […] Also no change in the impurity profile was observed after 6 months storage.\nPotassium (Z)-14-(furan-2-yl)tetradeca-9-en-11,13-diynoate was also kept as a crystalline solid for 6 month at 25° C., 60% RH. Analysis was performed as described above. After 6 months of storage characteristics of the solid has not changed and it was still a beige solid. […] Also no change in the impurity profile was observed after 6 months storage.\nPotassium (Z)-14-(furan-2-yl)tetradeca-9-en-11,13-diynoate was also kept as a crystalline solid for 6 month at 40° C., 75% RH. Analysis was performed as described above. After 6 months of storage the appearance of the solid had changed to a brown solid. Furthermore, a decrease in the content of potassium (Z)-14-(furan-2-yl)tetradeca-9-en-11,13-diynoate to 96% was observed as analysed by HPLC.\nSodium (Z)-14-(furan-2-yl)tetradeca-9-en-11,13-diynoate was kept as an amorphous solid at room temperature. […] Furthermore the salt was dissolved in an aqueous solution and already after few days the content of sodium (Z)-14-(furan-2-yl)tetradeca-9-en-11,13-diynoate was reduced by 35%, thus proving strong instability of the amorphous salt form."}, "A. nidulans": {"system": "A. nidulans", "test": "Susceptibility of clinical Aspergillus isolates (MIC)", "format": "cell-based", "conditions": "24 h", "description": "(§1) The efficacy of compound IV″ was investigated on 563 clinical isolates of 33 human fungal pathogens. […] For species with n≧10, the MIC90 (MIC, minimal inhibitory concentration) is given as ng/ml. For species with n≦10, the MIC range is given as ng/ml. 24 h and 48 h reads are indicated (Table 1).\n(§2) Susceptibilities were determined according to the CLSI reference method M38-A2."}, "A. versicolor": {"system": "A. versicolor", "test": "Susceptibility of clinical Aspergillus isolates (MIC)", "format": "cell-based", "description": "as §1, §2"}, "A. terreus": {"system": "A. terreus", "test": "Susceptibility of clinical Aspergillus isolates (MIC)", "format": "cell-based", "description": "as §1, §2"}, "A. flavus": {"system": "A. flavus", "test": "Susceptibility of clinical Aspergillus isolates (MIC)", "format": "cell-based", "description": "as §1, §2"}, "A. niger": {"system": "A. niger", "test": "Susceptibility of clinical Aspergillus isolates (MIC)", "format": "cell-based", "conditions": "24 h", "description": "as §1, §2"}, "A. fumigatus": {"system": "A. fumigatus", "test": "Susceptibility of clinical Aspergillus isolates (MIC)", "format": "cell-based", "description": "as §1, §2"}, "Cytochrome P450 2C8": {"target": "Cytochrome P450 2C8 (Homo sapiens, UniProt P10632)", "sequence (P10632 whole entry)": "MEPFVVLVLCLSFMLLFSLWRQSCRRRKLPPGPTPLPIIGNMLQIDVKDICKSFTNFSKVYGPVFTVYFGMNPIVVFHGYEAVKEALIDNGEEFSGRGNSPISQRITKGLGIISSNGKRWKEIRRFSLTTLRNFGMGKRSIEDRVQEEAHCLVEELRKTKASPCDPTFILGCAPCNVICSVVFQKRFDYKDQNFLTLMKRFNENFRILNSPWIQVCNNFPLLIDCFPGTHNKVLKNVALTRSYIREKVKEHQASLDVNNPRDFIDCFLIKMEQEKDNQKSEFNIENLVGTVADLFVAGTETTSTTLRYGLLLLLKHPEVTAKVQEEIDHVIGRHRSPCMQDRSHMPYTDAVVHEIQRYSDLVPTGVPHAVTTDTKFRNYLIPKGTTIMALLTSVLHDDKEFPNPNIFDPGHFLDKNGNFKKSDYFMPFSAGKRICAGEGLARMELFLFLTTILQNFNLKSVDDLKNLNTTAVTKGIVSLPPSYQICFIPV", "test": "Inhibition of cytochrome P450 enzymes", "format": "in vitro ADME", "conditions": "substrate paclitaxel", "description": "(§3) Peak areas corresponding to the metabolite of each substrate were recorded. The percent of control activity was then calculated by comparing the peak area obtained in the presence of the diyne potassium salt and in the absence."}, "Cytochrome P450 1A": {"system": "Cytochrome P450 1A", "test": "Inhibition of cytochrome P450 enzymes", "format": "in vitro ADME", "conditions": "substrate ethoxyresorufin; 10 μM", "description": "as §3"}, "Cytochrome P450 2D6": {"target": "Cytochrome P450 2D6 (Homo sapiens, UniProt P10635)", "sequence (P10635 whole entry)": "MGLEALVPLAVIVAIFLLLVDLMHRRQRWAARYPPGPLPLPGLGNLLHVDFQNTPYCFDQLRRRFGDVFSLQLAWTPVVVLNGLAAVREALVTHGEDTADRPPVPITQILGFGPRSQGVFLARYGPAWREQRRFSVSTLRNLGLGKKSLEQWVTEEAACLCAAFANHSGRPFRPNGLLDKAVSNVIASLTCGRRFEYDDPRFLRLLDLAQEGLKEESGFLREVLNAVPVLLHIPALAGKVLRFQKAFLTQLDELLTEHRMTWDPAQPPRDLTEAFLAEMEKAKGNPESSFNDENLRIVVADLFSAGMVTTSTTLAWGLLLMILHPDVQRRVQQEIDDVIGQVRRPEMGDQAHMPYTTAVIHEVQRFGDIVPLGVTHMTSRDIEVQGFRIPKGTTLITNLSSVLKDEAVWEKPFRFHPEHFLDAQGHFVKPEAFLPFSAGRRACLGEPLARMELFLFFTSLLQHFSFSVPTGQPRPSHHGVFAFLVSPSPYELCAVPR", "test": "Inhibition of cytochrome P450 enzymes", "format": "in vitro ADME", "conditions": "substrate dextromethorphan", "description": "as §3"}, "Cytochrome P450 2C9": {"target": "Cytochrome P450 2C9 (Homo sapiens, UniProt P11712)", "sequence (P11712 whole entry)": "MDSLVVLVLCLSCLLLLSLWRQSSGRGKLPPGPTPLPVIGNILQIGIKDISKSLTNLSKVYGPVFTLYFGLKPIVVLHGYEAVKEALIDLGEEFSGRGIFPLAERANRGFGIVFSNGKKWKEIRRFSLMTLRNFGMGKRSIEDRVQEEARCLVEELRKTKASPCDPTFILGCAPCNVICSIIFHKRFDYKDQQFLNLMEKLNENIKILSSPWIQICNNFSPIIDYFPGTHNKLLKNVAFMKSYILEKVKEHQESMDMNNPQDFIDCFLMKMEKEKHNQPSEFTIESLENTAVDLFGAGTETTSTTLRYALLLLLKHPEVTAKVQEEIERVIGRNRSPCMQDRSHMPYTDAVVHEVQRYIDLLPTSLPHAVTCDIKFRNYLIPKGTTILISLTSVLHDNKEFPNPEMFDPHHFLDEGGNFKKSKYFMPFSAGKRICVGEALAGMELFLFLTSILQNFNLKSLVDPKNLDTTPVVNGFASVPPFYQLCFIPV", "test": "Inhibition of cytochrome P450 enzymes", "format": "in vitro ADME", "conditions": "substrate diclofenac", "description": "as §3"}, "Cytochrome P450 3A": {"system": "Cytochrome P450 3A", "test": "Inhibition of cytochrome P450 enzymes", "format": "in vitro ADME", "conditions": "10 μM", "description": "as §3"}, "CYP3A": {"system": "CYP3A", "test": "Inhibition of cytochrome P450 enzymes", "format": "in vitro ADME", "conditions": "human", "description": "as §3"}, "CYP1A": {"system": "CYP1A", "test": "Inhibition of cytochrome P450 enzymes", "format": "in vitro ADME", "conditions": "human, probe ethoxyresorufin; substrate ethoxyresorufin", "description": "as §3"}, "Coccidioides spp.": {"system": "Coccidioides spp.", "test": "microbe, parasite or virus in culture", "format": "cell-based"}, "Fonsecaea pedrosi": {"system": "Fonsecaea pedrosi", "test": "Susceptibility of clinical isolates (MIC, broth dilution)", "format": "cell-based", "conditions": "Fonsecaea pedrosi (n = 4)", "description": "as §1"}, "Zygomycetes": {"system": "Zygomycetes", "test": "Susceptibility of clinical isolates (MIC, broth dilution)", "format": "cell-based", "conditions": "Zygomycetes (n = 20)", "description": "as §1"}, "Fusarium solani": {"system": "Fusarium solani", "test": "Susceptibility of clinical isolates (MIC, broth dilution)", "format": "cell-based", "conditions": "Fusarium solani (n = 10)", "description": "as §1"}, "C. neoformans": {"system": "C. neoformans", "test": "Susceptibility of clinical isolates (MIC, broth dilution)", "format": "cell-based", "conditions": "C. neoformans (n = 18)", "description": "as §1"}, "Sporothrix schenckii": {"system": "Sporothrix schenckii", "test": "Susceptibility of clinical isolates (MIC, broth dilution)", "format": "cell-based", "conditions": "Sporothrix schenckii (n = 10)", "description": "as §1"}, "Phialophora verrucosa": {"system": "Phialophora verrucosa", "test": "Susceptibility of clinical isolates (MIC, broth dilution)", "format": "cell-based", "conditions": "Phialophora verrucosa (n = 4)", "description": "as §1"}},
  "data": [
    {"smiles": "O=C(O)CCCCCCC/C=C\\C#CC#Cc1ccco1", "note": "[Compound III″]", "values": [
      {"measurement": "decrease of vaginal fungal burden (CFU, lavage fluid)", "setting": "Candida albicans [1]", "result": 86, "unit": "%"},
      {"measurement": "growth of spores germinated in the absence of drug", "setting": "C. albicans spores", "result": "effectively inhibited the subsequent growth of spores"},
      {"measurement": "MFC", "setting": "Candida albicans [2]", "result": "< 0.06", "unit": "ng/mL"},
      {"measurement": "MIC", "setting": "Candida albicans [2]; 90% inhibition endpoint", "result": "< 0.06", "unit": "ng/mL"},
      {"measurement": "MIC", "setting": "M. vanbreuseghemii; 96 h, 35° C., 4 days", "result": 30, "unit": "ng/mL"},
      {"measurement": "MFC", "setting": "M. vanbreuseghemii", "result": 16000, "unit": "ng/mL"},
      {"measurement": "MIC90/MIC range 48 h", "setting": "M. vanbreuseghemii; 48 h", "result": 30, "unit": "ng/mL"}
    ]},
    {"smiles": "O=C([O-])CCCCCCC/C=C\\C#CC#Cc1ccco1.[K+]", "note": "[Compound IV″, potassium (Z)-14-(furan-2-yl)tetradeca-9-en-11,13-diynoate]", "values": [
      {"measurement": "content after storage (HPLC)", "setting": "[3]; 6 month at 2-8° C.", "result": "had not significantly changed"},
      {"measurement": "content after storage (HPLC)", "setting": "[3]; 6 month at 25° C., 60% RH", "result": "had not changed significantly"},
      {"measurement": "content after storage (HPLC), decrease to", "setting": "[3]; 6 month at 40° C., 75% RH", "result": 96, "unit": "%"},
      {"measurement": "MIC50", "setting": "A. nidulans", "result": 5120, "unit": "ng/mL"},
      {"measurement": "MIC90/MIC range 24 h", "setting": "A. versicolor; A. versicolor (n = 4), MIC range, 24 h", "result": "80 to 2560", "unit": "ng/mL"},
      {"measurement": "MIC90/MIC range 48 h", "setting": "A. versicolor; A. versicolor (n = 4), MIC range, 48 h", "result": "160 to 5120", "unit": "ng/mL"},
      {"measurement": "MIC50", "setting": "A. versicolor; Aspergillus versicolor, 24 h", "result": 1280, "unit": "ng/mL"},
      {"measurement": "MIC90/MIC range 24 h", "setting": "A. terreus; A. terreus (n = 5), MIC range", "result": "10 to 20", "unit": "ng/mL"},
      {"measurement": "MIC50", "setting": "A. terreus; Aspergillus terreus, 24 h", "result": 10, "unit": "ng/mL"},
      {"measurement": "MIC90/MIC range 48 h", "setting": "A. flavus; A. flavus (n = 5), MIC range, 48 h", "result": ">5120", "unit": "ng/mL"},
      {"measurement": "MIC50", "setting": "A. flavus; Aspergillus flavus, 24 h", "result": "> 5120", "unit": "ng/mL"},
      {"measurement": "MIC50", "setting": "A. niger", "result": 2560, "unit": "ng/mL"},
      {"measurement": "MIC90/MIC range 24 h", "setting": "A. fumigatus; A. fumigatus (n = 40), MIC90, 24 h", "result": 160, "unit": "ng/mL"},
      {"measurement": "MIC90/MIC range 48 h", "setting": "A. fumigatus; A. fumigatus (n = 40), MIC90, 48 h", "result": 1280, "unit": "ng/mL"},
      {"measurement": "MIC50", "setting": "A. fumigatus; Aspergillus fumigatus, 24 h", "result": 80, "unit": "ng/mL"},
      {"measurement": "IC50", "setting": "Cytochrome P450 2C8", "result": "> 100", "unit": "µM"},
      {"measurement": "% control at 10 μM", "setting": "Cytochrome P450 2C8; 10 μM", "result": 84, "unit": "%"},
      {"measurement": "% control at 10 μM", "setting": "Cytochrome P450 1A", "result": 92, "unit": "%"},
      {"measurement": "IC50", "setting": "Cytochrome P450 2D6", "result": "> 100", "unit": "µM"},
      {"measurement": "% control at 10 μM", "setting": "Cytochrome P450 2D6; 10 μM", "result": 88, "unit": "%"},
      {"measurement": "IC50", "setting": "Cytochrome P450 2C9", "result": 18, "unit": "µM"},
      {"measurement": "% control at 10 μM", "setting": "Cytochrome P450 2C9; 10 μM", "result": 74, "unit": "%"},
      {"measurement": "% control at 10 μM", "setting": "Cytochrome P450 3A; substrate midazolam", "result": 85, "unit": "%"},
      {"measurement": "% control at 10 μM", "setting": "Cytochrome P450 3A; substrate testosterone", "result": 90, "unit": "%"},
      {"measurement": "IC50", "setting": "CYP3A; probe midazolam, substrate midazolam", "result": 45, "unit": "µM"},
      {"measurement": "IC50", "setting": "CYP3A; probe testosterone, substrate testosterone", "result": 57, "unit": "µM"},
      {"measurement": "IC50", "setting": "CYP1A", "result": 59, "unit": "µM"},
      {"measurement": "MIC90/MIC range 48 h", "setting": "Coccidioides spp.; Coccidioides spp. (n = 30), MIC90", "result": 30, "unit": "ng/mL"},
      {"measurement": "MIC90", "setting": "Coccidioides spp.; Coccidioides, 48 h", "result": 30, "unit": "ng/mL"},
      {"measurement": "MIC90/MIC range 48 h", "setting": "Fonsecaea pedrosi", "result": "80 to 2560", "unit": "ng/mL"},
      {"measurement": "MIC90/MIC range 48 h", "setting": "Zygomycetes", "result": 16000, "unit": "ng/mL"},
      {"measurement": "MIC90/MIC range 48 h", "setting": "Fusarium solani", "result": ">64000", "unit": "ng/mL"},
      {"measurement": "MIC90/MIC range 48 h", "setting": "C. neoformans", "result": 2000, "unit": "ng/mL"},
      {"measurement": "MIC90/MIC range 48 h", "setting": "Sporothrix schenckii", "result": "32 to 5120", "unit": "ng/mL"},
      {"measurement": "MIC90/MIC range 48 h", "setting": "Phialophora verrucosa", "result": "40 to 640", "unit": "ng/mL"}
    ]}
  ]
}
